Reference: US9937115B2, “Oral care compositions with improved flavor” (priority 2010, dated 2018)

What was measured:
[1] = biological target: T1, TRPA1 receptor (Homo sapiens, UniProt O75762); experiment: cell-based; set-up: activation: dose or concentration left out as unconfirmed; conditions: for activation at 100 µM / activation: HEK293; for activation at 100 µM / activation / TRPA1 Direct addition: percentage of the control (allyl isothiocyanate) calcium count, material dissolved in DMSO at 100 micromolar, HEK cells with TRPA1; for activation at 100 µM / TRPA1 Direct addition: direct addition; for activation at 100 µM: read-out: TRPA1 Direct addition; for activation: pre-incubation, read-out: TRPA1 Pre-incubation; for % of AITC Receptor Activation (from Data in Table II): restated in Table III from Table II;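 as to TRPA1 Pre-incubation: values above 100 mean more active than the control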
T1 construct: expressed in transfected cells; host or cells: HEK cell line
Method in brief: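 HEK cells expressing TRPA1 were treated with test compounds dissolved in DMSO at 100 micromolar, with allyl isothiocyanate as positive control. Agonism was read on a FLIPR as calcium-dye fluorescence counts above background. A TRPA1 activator was defined as giving at least 1000 counts above background at 1 mM.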

[2] = Panelists brushed with dentifrice Formula Ia-Ie and rated reduction in soapy off taste and flavor character; format: in vivo; conditions: molecule incorporated in toothpaste Formula Ia-Ie; panelists n=4
Description: Then, these materials were further screened in Test Formula Ia-Ie, by incorporating at the indicated level. After the toothpaste was made, a small group of panelists (n=4) brushed with the dentifrice and rated the reduction in soapy off taste and the flavor character the compound provided.

[3] = concentration where the cooling effect could be clearly recognized; cited from earlier work
[4] = biological target: T1, TRPA1 receptor; format: cell-based; conditions: percentage of the control (allyl isothiocyanate) calcium count, material dissolved in DMSO at 100 micromolar, HEK cells with TRPA1

T1 sequence (O75762 whole entry): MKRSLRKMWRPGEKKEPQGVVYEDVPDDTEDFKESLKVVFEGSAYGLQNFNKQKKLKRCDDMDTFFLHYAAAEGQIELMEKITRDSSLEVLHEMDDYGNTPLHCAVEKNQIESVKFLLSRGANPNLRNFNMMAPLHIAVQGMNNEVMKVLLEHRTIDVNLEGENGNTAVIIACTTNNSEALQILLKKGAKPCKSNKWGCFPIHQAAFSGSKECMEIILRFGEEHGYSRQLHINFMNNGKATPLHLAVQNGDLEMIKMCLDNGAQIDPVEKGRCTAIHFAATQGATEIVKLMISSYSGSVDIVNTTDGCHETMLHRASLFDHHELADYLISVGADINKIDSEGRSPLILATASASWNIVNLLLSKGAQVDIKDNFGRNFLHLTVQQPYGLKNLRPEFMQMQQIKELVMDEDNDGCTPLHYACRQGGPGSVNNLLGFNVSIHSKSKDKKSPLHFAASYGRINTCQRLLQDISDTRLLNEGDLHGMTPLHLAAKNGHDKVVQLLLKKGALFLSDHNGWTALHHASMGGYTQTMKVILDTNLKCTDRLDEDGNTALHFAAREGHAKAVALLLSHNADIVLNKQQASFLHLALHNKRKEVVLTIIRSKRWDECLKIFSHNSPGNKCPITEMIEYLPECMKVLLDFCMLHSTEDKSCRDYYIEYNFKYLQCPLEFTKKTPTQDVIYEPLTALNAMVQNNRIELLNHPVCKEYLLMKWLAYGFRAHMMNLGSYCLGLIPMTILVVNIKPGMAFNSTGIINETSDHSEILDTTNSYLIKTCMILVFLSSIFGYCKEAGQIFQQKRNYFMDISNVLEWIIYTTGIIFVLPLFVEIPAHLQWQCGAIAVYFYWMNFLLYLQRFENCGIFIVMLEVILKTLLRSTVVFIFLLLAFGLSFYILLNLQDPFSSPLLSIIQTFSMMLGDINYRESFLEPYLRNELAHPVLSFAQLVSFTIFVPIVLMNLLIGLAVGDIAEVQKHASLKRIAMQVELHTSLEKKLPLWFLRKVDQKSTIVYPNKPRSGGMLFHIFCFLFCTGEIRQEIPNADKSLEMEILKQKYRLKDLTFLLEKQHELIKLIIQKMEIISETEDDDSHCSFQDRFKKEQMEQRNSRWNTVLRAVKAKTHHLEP

Row | Structure (SMILES) | TRPA1 Direct addition [1] | TRPA1 Pre-incubation [4] | also measured
1 | O=C(c1ccccc1)c1ccccc1 [Benzophenone] | – | – | activation at 100 µM [1]: 138%; activation [1]: 0%; % of AITC Receptor Activation (from Data in Table II) [1]: 138%; Qualitative Team Evaluations (n = 4) [2]: No observable effect
2 | CC(C)[C@@H]1CC[C@@H](C)C[C@@H]1O [d-neomenthol] | – | – | cooling threshold [3]: about 25,000 ppb
3 | COc1cc(C=O)ccc1OC(=O)C(C)C [Vanillin Isobutyrate] | – | – | activation at 100 µM [1]: 118%; activation [1]: -0.11%; % of AITC Receptor Activation (from Data in Table II) [1]: 118%; Qualitative Team Evaluations (n = 4) [2]: Great reduction in bitter taste with no aftertaste. Slight vanilla character.
4 | CCOc1cc(C=O)ccc1OC(=O)C(C)C [Ethyl vanillin isobutyrate] | – | – | Qualitative Team Evaluations (n = 4) [2]: Great reduction in bitter taste with no aftertaste. Slight vanilla character. Similar to vanillin isobutyrate
5 | CCC(C)/C=C(\C=O)c1ccccc1 (centres unmarked) [4-Methyl-2-phenyl-2-hexenal, 4-Methyl-2-phenyl-2-hexenal] | – | – | % of AITC Receptor Activation (from Data in Table II) [1]: 132%; Qualitative Team Evaluations (n = 4) [2]: Reduces the bitterness from alkyl phosphates, but it has a bitter character on its own
6 | CC(C)[C@@H]1CC[C@@H](C)C[C@@H]1O [Material 1-neomenthol, 1-neomenthol] | – | – | cooling threshold [3]: about 3,000 ppb
7 | CC(C)[C@@H]1CC[C@@H](C)C[C@H]1O [L-menthol] | – | – | cooling threshold [3]: about 800 ppb
8 | Oc1cc(Cl)ccc1Oc1ccc(Cl)cc1Cl [Triclosan, reference compound] | – | – | activation at 100 µM [1]: 196%; activation [1]: -0.05%; % of AITC Receptor Activation (from Data in Table II) [1]: 277%; Qualitative Team Evaluations (n = 4) [2]: Shifted off-taste from soapy to bitter after 10 minutes
9 | CCC(C)C=O (centres unmarked) [2-Methylbutraldehyde] | 81.04% | 35.61% | –
10 | CCC(C)(O)CCCC(C)C (centres unmarked) [Tetrahydrolinalool] | −17.09% | 70.8% | –
11 | CC(=O)c1nccs1 [2-Aceylthiazole] | −1.29% | 57.82% | –
12 | CC(C)=CCCC(C)CCO (centres unmarked) [Cironellol] | −1.03% | 51.22% | –
13 | CC(=O)O[C@@H]1C[C@H](C)CC[C@H]1C(C)C (racemic) [DL-Menthyl Acetate] | −16.09% | 43.32% | –
14 | CC(=O)CCC1C(C)=CCCC1(C)C (stereo not drawn) [Dihydro-alpha-ionone] | 0.11% | 108.18% | –
15 | C=C(C)C1CC=C(C)C(OC(C)=O)C1 (centres unmarked) [carvyl acetate] | −0.25% | 117.9% | –
16 | CC(=O)C1(C)CC2=C(CCCC2(C)C)CC1C (centres unmarked) [ISO E Super] | 11.53% | −0.4% | –
17 | CCc1nc(C)cs1 [2-Ethyl-4-Methythiazole] | −1.38% | 62.39% | –
18 | C/C=C/c1ccc(OCC)c(OC)c1 [ethyl isoeugenol] | −0.14% | 111.43% | –
19 | C/C=C\C(=O)C1C(C)=CCCC1(C)C (stereo not drawn) [Alpha-Damascone] | −2.88% | 96.58% | –
20 | COc1ccc(C(C)=O)cc1 [Acetanisole] | 0.15% | 83.69% | –
21 | C/C=C/C(=O)C1C(C)C=CCC1(C)C (centres unmarked) [delta-damascone] | 0.74% | 138.93% | –
22 | CC(C)=CC1CC(C)CCO1 (racemic) [Rose Oxide Racemic] | −6.68% | 80.14% | –
23 | CC(=O)CCc1ccc(O)cc1 [4-P-hydroxyphenyl-2-butanone] | 0.2% | 63.07% | –
24 | O=C(O)C(O)C(O)C(=O)O [L-Tataric Acid] | −2.77% | 79% | –
